# Results from US10722501B2 (BAYER AKTIENGESELLSCHAFT, priority 2016, dated 2020).
# pIC50: −log10 of the molar value.
# Molecular target: T1, recombinant full-length human prolyl endopeptidase (PREP) (Homo sapiens, UniProt P48147)
# T1 construct: To recombinant full-length human prolyl endopeptidase (PREP, R&D-Systems, 4308-SE); purchased R&D-Systems 4308-SE
# T1 sequence (P48147 1-710): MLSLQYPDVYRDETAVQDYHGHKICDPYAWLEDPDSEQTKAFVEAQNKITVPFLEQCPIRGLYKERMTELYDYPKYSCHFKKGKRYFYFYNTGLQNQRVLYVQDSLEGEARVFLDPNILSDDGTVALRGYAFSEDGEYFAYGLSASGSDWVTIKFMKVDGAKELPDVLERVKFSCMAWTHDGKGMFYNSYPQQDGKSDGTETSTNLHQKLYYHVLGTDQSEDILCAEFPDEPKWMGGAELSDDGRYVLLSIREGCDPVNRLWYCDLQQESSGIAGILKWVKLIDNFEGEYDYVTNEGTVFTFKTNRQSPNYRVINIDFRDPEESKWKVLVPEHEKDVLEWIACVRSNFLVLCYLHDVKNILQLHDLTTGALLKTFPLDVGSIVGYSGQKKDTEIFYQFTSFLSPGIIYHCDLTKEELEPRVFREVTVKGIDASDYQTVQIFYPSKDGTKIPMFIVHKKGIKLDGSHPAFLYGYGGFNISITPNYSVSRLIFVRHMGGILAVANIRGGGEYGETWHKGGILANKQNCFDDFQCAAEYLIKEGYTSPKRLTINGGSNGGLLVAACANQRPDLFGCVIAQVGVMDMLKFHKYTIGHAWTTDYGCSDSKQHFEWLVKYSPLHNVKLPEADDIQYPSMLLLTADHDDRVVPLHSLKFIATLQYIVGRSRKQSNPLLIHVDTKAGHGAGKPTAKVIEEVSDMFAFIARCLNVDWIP
# Test: Biochemical human prolyl endopeptidase (PREP) assay with fluorescently labelled substrate
# Settings: substrate Z-Gly-Pro-AMC 50 μM, 32° C., 60 min; some as mean values from multiple independent determinations
# Method: B-1 Biochemical Human Prolyl Endopeptidase (PREP) Assay for Identification of Inhibitors of PREP Activity Using a Fluorescently Labelled Substrate Principle of the Assay:
# The enzymatic conversion of the fluorescent peptide substrate was observed on the basis of the measurement of the fluorescence intensity. The enzyme activity was determined by the ascertaining of the initial slope in the increase in fluorescence. Compounds that inhibit PREP were identified on the basis of the decrease in the initial slope compared to a reaction mixture without test compound.
# Determination of Activity:
# IC50 values were determined by the plotting of the percentage PREP activity against the concentration of the test substance by interpolation.
# To recombinant full-length human prolyl endopeptidase (PREP, R&D-Systems, 4308-SE; final concentration, for example, 0.4 nM, volume: 25 μl) in reaction buffer (50 mM Tris-HCl, pH 7.5; 150 mM NaCl; 0.13% BSA, 5 mM EDTA, 3 mM GSH, 0.005% Brij-35) was added a test compound (in DMSO, in an appropriate final concentration range from 1 nM to 30 μM, volume: 1 μl) in a well of a 384-well microtitre plate. The reaction was initiated by adding the substrate Z-Gly-Pro-AMC (final concentration 50 μM; Z=carboxybenzyl; AMC=7-amino-4-methylcoumarin, volume: 25 μl). The progress of the PREP reaction was observed by measuring the fluorescence intensity in a Tecan SAFIRE II plate spectrophotometer at 32° C. over a period of 60 min (excitation wavelength: 360 nm, emission wavelength: 465 nm).
# Table B-1 below collates the IC50 values thus obtained from the human prolyl endopeptidase assay for individual working examples of the invention (some as mean values from multiple independent individual determinations).
row,pIC50,Compound
1,7.00,"Cc1nc(Cn2nc3n(c2=O)C(C(=O)N2CCCC2)CCC3)no1 (racemic) [Example 12, (5RS)-2-[(5-Methyl-1,2,4-oxadiazol-3-yl)methyl]-5-(pyrrolidin-1-ylcarbonyl)-5,6,7,8-tetrahydro[1,2,4]triazolo[4,3-a]pyridin-3(2H)-one]"
2,8.27,"Cc1cc(Cn2nc3n(c2=O)C(C(=O)N2CCCC2)CCC3)on1 (racemic) [Example 13, (5RS)-2-[(3-Methyl-1,2-oxazol-5-yl)methyl]-5-(pyrrolidin-1-ylcarbonyl)-5,6,7,8-tetrahydro[1,2,4]triazolo[4,3-a]pyridin-3(2H)-one]"
3,9.52,O=C(C1CCCc2nn(Cc3ccc(C(F)(F)F)c(F)c3)c(=O)n21)N1CCCC1 (racemic) [Example 14]
4,8.08,"Cc1cc(Cn2nc3n(c2=O)C(C(=O)N2CCCC2)CCC3)ccn1 (racemic) [Example 15, (5RS)-2-[(2-Methylpyridin-4-yl)methyl]-5-(pyrrolidin-1-ylcarbonyl)-5,6,7,8-tetrahydro[1,2,4]triazolo[4,3-a]pyridin-3(2H)-one]"
5,8.66,"O=C(C1CCCc2nn(Cc3cccc(F)c3)c(=O)n21)N1CCCC1 (racemic) [Example 16, (5RS)-2-(3-Fluorobenzyl)-5-(pyrrolidin-1-ylcarbonyl)-5,6,7,8-tetrahydro[1,2,4]triazolo[4,3-a]pyridin-3(2H)-one]"
6,8.92,"O=C(C1CCCc2nn(Cc3ccc(F)c(F)c3)c(=O)n21)N1CCCC1 (racemic) [Example 17, (5RS)-2-(3,4-Difluorobenzyl)-5-(pyrrolidin-1-ylcarbonyl)-5,6,7,8-tetrahydro[1,2,4]triazolo[4,3-a]pyridin-3(2H)-one]"
7,9.24,"O=C(C1CCCc2nn(Cc3ccc(F)c(Cl)c3)c(=O)n21)N1CCCC1 (racemic) [Example 18, (5RS)-2-(3-Chloro-4-fluorobenzyl)-5-(pyrrolidin-1-ylcarbonyl)-5,6,7,8-tetrahydro[1,2,4]triazolo[4,3-a]pyridin-3(2H)-one]"
8,9.24,"O=C(C1CCCc2nn(Cc3cccc(C(F)(F)F)c3)c(=O)n21)N1CCCC1 (racemic) [Example 19, (5RS)-5-(Pyrrolidin-1-ylcarbonyl)-2-[3-(trifluoromethyl)benzyl]-5,6,7,8-tetrahydro[1,2,4]triazolo[4,3-a]pyridin-3(2H)-one]"
9,8.82,"COc1cccc(Cn2nc3n(c2=O)C(C(=O)N2CCCC2)CCC3)c1 (racemic) [Example 20, (5RS)-2-(3-Methoxybenzyl)-5-(pyrrolidin-1-ylcarbonyl)-5,6,7,8-tetrahydro[1,2,4]triazolo[4,3-a]pyridin-3(2H)-one]"
10,8.16,"Cn1ccc(Cn2nc3n(c2=O)C(C(=O)N2CCCC2)CCC3)n1 (racemic) [Example 21, (5RS)-2-[(1-Methyl-1H-pyrazol-3-yl)methyl]-5-(pyrrolidin-1-ylcarbonyl)-5,6,7,8-tetrahydro[1,2,4]triazolo[4,3-a]pyridin-3(2H)-one]"
11,7.38,"O=C(C1CCCc2nn(Cc3ccccn3)c(=O)n21)N1CCCC1 (racemic) [Example 22, (5RS)-2-(Pyridin-2-ylmethyl)-5-(pyrrolidin-1-ylcarbonyl)-5,6,7,8-tetrahydro[1,2,4]triazolo[4,3-a]pyridin-3(2H)-one]"
12,8.31,"O=C(C1CCCc2nn(Cc3ccc(C(F)(F)F)cn3)c(=O)n21)N1CCCC1 (racemic) [Example 23, (5RS)-5-(Pyrrolidin-1-ylcarbonyl)-2-{[5-(trifluoromethyl)pyridin-2-yl]methyl}-5,6,7,8-tetrahydro[1,2,4]triazolo[4,3-a]pyridin-3(2H)-one]"
13,8.31,"Cc1[nH]cnc1Cn1nc2n(c1=O)C(C(=O)N1CCCC1)CCC2 (racemic) [Example 24, (5RS)-2-[(5-Methyl-1H-imidazol-4-yl)methyl]-5-(pyrrolidin-1-ylcarbonyl)-5,6,7,8-tetrahydro[1,2,4]triazolo[4,3-a]pyridin-3(2H)-one]"
14,9.12,"Cc1ccc(Cn2nc3n(c2=O)C(C(=O)N2CCCC2)CCC3)cc1 (racemic) [Example 25, (5RS)-2-(4-Methylbenzyl)-5-(pyrrolidin-1-ylcarbonyl)-5,6,7,8-tetrahydro[1,2,4]triazolo[4,3-a]pyridin-3(2H)-one]"
15,8.89,"O=C(C1CCCc2nn(Cc3ccc(Cl)cc3)c(=O)n21)N1CCCC1 (racemic) [Example 27, (5RS)-2-(4-Chlorobenzyl)-5-(pyrrolidin-1-ylcarbonyl)-5,6,7,8-tetrahydro[1,2,4]triazolo[4,3-a]pyridin-3(2H)-one]"
16,7.62,"CC(C)(C)OC(=O)c1ccc(Cn2nc3n(c2=O)C(C(=O)N2CCCC2)CCC3)cc1 (racemic) [Example 28, tert-Butyl 4-{[(5RS)-3-oxo-5-(pyrrolidin-1-ylcarbonyl)-5,6,7,8-tetrahydro[1,2,4]triazolo[4,3-a]pyridin-2(3H)-yl]methyl}benzoate]"
17,8.92,"NS(=O)(=O)c1ccc(Cn2nc3n(c2=O)C(C(=O)N2CCCC2)CCC3)cc1 (racemic) [Example 29, 4-{[(5RS)-3-Oxo-5-(pyrrolidin-1-ylcarbonyl)-5,6,7,8-tetrahydro[1,2,4]triazolo[4,3-a]pyridin-2(3H)-yl]methyl}benzenesulphonamide]"
18,8.80,"CSc1ccc(Cn2nc3n(c2=O)C(C(=O)N2CCCC2)CCC3)cc1 (racemic) [Example 30, (5RS)-2-[4-(Methylsulphanyl)benzyl]-5-(pyrrolidin-1-ylcarbonyl)-5,6,7,8-tetrahydro[1,2,4]triazolo[4,3-a]pyridin-3(2H)-one]"
19,8.54,"O=C(C1CCCc2nn(Cc3ccc(Cl)nc3)c(=O)n21)N1CCCC1 (racemic) [Example 31, (5RS)-2-[(6-Chloropyridin-3-yl)methyl]-5-(pyrrolidin-1-ylcarbonyl)-5,6,7,8-tetrahydro[1,2,4]triazolo[4,3-a]pyridin-3(2H)-one]"
20,8.11,"O=C(C1CCCc2nn(Cc3ccc(Cl)cn3)c(=O)n21)N1CCCC1 (racemic) [Example 33, (5RS)-2-[(5-Chloropyridin-2-yl)methyl]-5-(pyrrolidin-1-ylcarbonyl)-5,6,7,8-tetrahydro[1,2,4]triazolo[4,3-a]pyridin-3(2H)-one]"
21,7.82,"N#Cc1ccc(Cn2nc3n(c2=O)C(C(=O)N2CCCC2)CCC3)cn1 (racemic) [Example 35, 5-{[(5RS)-3-Oxo-5-(pyrrolidin-1-ylcarbonyl)-5,6,7,8-tetrahydro[1,2,4]triazolo[4,3-a]pyridin-2(3H)-yl]methyl}pyridine-2-carbonitrile]"
22,8.44,"COc1ccc(Cn2nc3n(c2=O)C(C(=O)N2CCCC2)CCC3)cc1 (racemic) [Example 36, (5RS)-2-(4-Methoxybenzyl)-5-(pyrrolidin-1-ylcarbonyl)-5,6,7,8-tetrahydro[1,2,4]triazolo[4,3-a]pyridin-3(2H)-one]"
23,9.08,O=C(C1CCCc2nn(Cc3ccc(Cl)c(C(F)(F)F)c3)c(=O)n21)N1CCCC1 (racemic) [Example 37]
24,9.00,"O=C(C1CCCc2nn(Cc3cccc(Cl)c3)c(=O)n21)N1CCCC1 (racemic) [Example 38, (5RS)-2-(3-Chlorobenzyl)-5-(pyrrolidin-1-ylcarbonyl)-5,6,7,8-tetrahydro[1,2,4]triazolo[4,3-a]pyridin-3(2H)-one]"
